Measurements published in patent US20170114030A1, “COMPOSITION WITH HIGH CONTENT OF CYCLIC DIPEPTIDE” (SUNTORY HOLDINGS LIMITED, priority 2014, published 2017).

What was measured:
plasma active GLP-1 = test: In vivo plasma active GLP-1 level-increasing action after oral administration; design: species or system mice; details: 10 mg/kg orally; for Plasma active GLP-1 level (relative value to control group as 100), Average value: male C57/BL6J mice, blood after 30 minutes, 0.5% CMC-Na group = 100; for Significant difference (p < 0.05) vs control group, plasma active GLP-1 level: mice, 30 minutes, Student's t-test
Protocol: (§1) In the Test Examples below, data were represented as average value±standard error. In Test Examples 1, 2, and 3, a Student's t-test was used for a statistical test, and in other Test Examples, one-way ANOVA was carried out for dispersion analysis followed by a multiple comparison test by using a Dunnet's test. […] All of these analyses were carried out by using an SPSS for Windows release 17.0 (manufactured by SPSS Inc.).
Among the cyclic dipeptides, cyclic dipeptides for which an in vitro GLP-1 secretion-accelerating action was found and highly lipid-soluble cyclic dipeptides were used in the following experiment. Seven-week-old male C57/BL6J mice were purchased from CLEA Japan, Inc. for use, and they were subjected to an experiment after 1 week of a habituation period. Each animal was grown in an animal room with an air conditioning system (temperature: 23.5±1.0° C., humidity: 55±10 RH %, air ventilation: 12 to 15 times/hour, illumination: from 7:00 to 19:00/day).
After the habituation period, the mice were subjected to 5.5 hours of food deprivation and 2 hours of water deprivation. Thereafter, a cyclic dipeptide dissolved or suspended in a 0.5% CMC-Na aqueous solution in 10 mg/kg was orally administered to each mouse forcibly. After 30 minutes, the blood was collected from the abdominal vena cava under anesthesia, and 1 μL of heparin sodium and 1 μL of 10 mM Sitagliptin phosphate were added to each collected blood, which was then subjected to centrifugation at 8000 rpm for 10 minutes to recover the plasma, and the plasma active GLP-1 level was measured by using the ELISA kit. In the analysis, the active GLP-1 level for a group administered with 0.5% CMC-Na aqueous solution was defined as 100, and relative values thereto were used.
In each Table, cyclic dipeptides for which an in vivo plasma active GLP-1 level-increasing action was found and was not found are listed.

NCI-H716 cells = test: In vitro GLP-1 secretion-accelerating action (active GLP-1 ELISA); assay type: cell-based; details: for Significant difference (p < 0.05) vs control group, amount of active GLP-1 secreted: 1 hour, Student's t-test; for Amount of active GLP-1 secreted (relative value to control group as 100), Average value: after 1 hour, group with no cyclic dipeptide = 100
Protocol: as §1
Among the cyclic dipeptides, 92 highly water-soluble cyclic dipeptides were used in the following experiment. In each well of a Poly-L-Lysine 96-well plate, NCI-H716 cells suspended in 100 μL of a DMEM (with 10% FBS, 2 mM glutamine, and 1% antibiotics added in advance) were seeded at 0.5×10^5 cells/well, and cultured in a CO2 incubator (manufactured by ESPEC CORP.) for 48 hours. After washing with PBS(+), 100 μL of a PBS(+) solution with each cyclic dipeptide at a final concentration of 10 mM and 10 μM of Sitagliptin phosphate added therein was added to the cells. After 1 hour, the resultant solution was recovered, and the amount of active GLP-1 in the solution was measured by using the ELISA kit. In the analysis, the amount of active GLP-1 for a group with no cyclic dipeptide added was defined as 100, and relative values thereto were used.
In each Table, cyclic dipeptides for which an in vitro active GLP-1 secretion-accelerating activity was found and was not found are listed.

[1] = Experiment 2, cyclic dipeptide 10 mM with 10 μM Sitagliptin phosphate
[2] = Experiment 4, cyclic dipeptide 10 mM with 10 μM Sitagliptin phosphate

SMILES: C[C@@H]1NC(=O)[C@H](CO)NC1=O [compound 25]
- Plasma active GLP-1 level (relative value to control group as 100), Average value (plasma active GLP-1; Experiment 1): 158
- Significant difference (p < 0.05) vs control group, plasma active GLP-1 level (plasma active GLP-1; Experiment 1): Yes
- Significant difference (p < 0.05) vs control group, amount of active GLP-1 secreted (NCI-H716 cells; Experiment 1, 10 mM): Yes
- Amount of active GLP-1 secreted (relative value to control group as 100), Average value (NCI-H716 cells; Experiment 1, cyclic dipeptide 10 mM with 10 μM Sitagliptin phosphate): 257

SMILES: O=C1N[C@@H](Cc2c[nH]c3ccccc23)C(=O)N[C@H]1Cc1c[nH]cn1 [compound 60]
- Plasma active GLP-1 level (relative value to control group as 100), Average value (plasma active GLP-1; Experiment 1): 129
- Significant difference (p < 0.05) vs control group, plasma active GLP-1 level (plasma active GLP-1; Experiment 1): No
- Significant difference (p < 0.05) vs control group, amount of active GLP-1 secreted (NCI-H716 cells; Experiment 2, 10 mM): Yes
- Amount of active GLP-1 secreted (relative value to control group as 100), Average value (NCI-H716 cells; [1]): 260

SMILES: NCCCC[C@@H]1NC(=O)[C@H](Cc2ccccc2)NC1=O [compound 63]
- Plasma active GLP-1 level (relative value to control group as 100), Average value (plasma active GLP-1; Experiment 1): 206
- Significant difference (p < 0.05) vs control group, plasma active GLP-1 level (plasma active GLP-1; Experiment 1): Yes
- Significant difference (p < 0.05) vs control group, amount of active GLP-1 secreted (NCI-H716 cells; Experiment 2, 10 mM): Yes
- Amount of active GLP-1 secreted (relative value to control group as 100), Average value (NCI-H716 cells; [1]): 220

SMILES: O=C(O)CC1NC(=O)C(Cc2ccc(O)cc2)NC1=O (stereo not shown) [compound 91]
- Plasma active GLP-1 level (relative value to control group as 100), Average value (plasma active GLP-1; Experiment 7): 181
- Significant difference (p < 0.05) vs control group, plasma active GLP-1 level (plasma active GLP-1; Experiment 7): No

SMILES: NC(=O)CC1NC(=O)C(Cc2ccc(O)cc2)NC1=O (stereo not shown) [compound 92]
- Plasma active GLP-1 level (relative value to control group as 100), Average value (plasma active GLP-1; Experiment 7): 181
- Significant difference (p < 0.05) vs control group, plasma active GLP-1 level (plasma active GLP-1; Experiment 7): No

SMILES: NC(=O)CCC1NC(=O)C(Cc2ccc(O)cc2)NC1=O (stereo not shown) [compound 93]
- Plasma active GLP-1 level (relative value to control group as 100), Average value (plasma active GLP-1; Experiment 7): 344
- Significant difference (p < 0.05) vs control group, plasma active GLP-1 level (plasma active GLP-1; Experiment 7): Yes

SMILES: CC(C)CC1NC(=O)C(Cc2c[nH]cn2)NC1=O (stereo not shown) [compound 103]
- Plasma active GLP-1 level (relative value to control group as 100), Average value (plasma active GLP-1; Experiment 8): 94
- Significant difference (p < 0.05) vs control group, plasma active GLP-1 level (plasma active GLP-1; Experiment 8): No

SMILES: CSCCC1NC(=O)C(C)NC1=O (stereo not shown) [compound 125]
- Plasma active GLP-1 level (relative value to control group as 100), Average value (plasma active GLP-1; Experiment 9): 133

SMILES: CSCCC1NC(=O)CNC1=O (stereo not shown) [compound 127]
- Plasma active GLP-1 level (relative value to control group as 100), Average value (plasma active GLP-1; Experiment 9): 124
- Significant difference (p < 0.05) vs control group, plasma active GLP-1 level (plasma active GLP-1; Experiment 9): Yes

SMILES: CCC(C)C1NC(=O)C(CO)NC1=O (stereo not shown) [compound 133]
- Plasma active GLP-1 level (relative value to control group as 100), Average value (plasma active GLP-1; Experiment 9): 133
- Significant difference (p < 0.05) vs control group, plasma active GLP-1 level (plasma active GLP-1; Experiment 9): Yes

SMILES: CC(C)C1NC(=O)C(CC(N)=O)NC1=O (stereo not shown) [compound 141]
- Plasma active GLP-1 level (relative value to control group as 100), Average value (plasma active GLP-1; Experiment 10): 191
- Significant difference (p < 0.05) vs control group, plasma active GLP-1 level (plasma active GLP-1; Experiment 10): Yes

SMILES: CCC(C)C1NC(=O)C(Cc2cnc[nH]2)NC1=O (stereo not shown) [compound 148]
- Plasma active GLP-1 level (relative value to control group as 100), Average value (plasma active GLP-1; Experiment 10): 259
- Significant difference (p < 0.05) vs control group, plasma active GLP-1 level (plasma active GLP-1; Experiment 10): Yes

SMILES: CCC(C)C1NC(=O)C(CCCCN)NC1=O (stereo not shown) [compound 150]
- Plasma active GLP-1 level (relative value to control group as 100), Average value (plasma active GLP-1; Experiment 10): 282
- Significant difference (p < 0.05) vs control group, plasma active GLP-1 level (plasma active GLP-1; Experiment 10): Yes

SMILES: CC(C)C1NC(=O)CNC1=O (stereo not shown) [compound 155]
- Plasma active GLP-1 level (relative value to control group as 100), Average value (plasma active GLP-1; Experiment 10): 55
- Significant difference (p < 0.05) vs control group, plasma active GLP-1 level (plasma active GLP-1; Experiment 10): No

SMILES: CCC(C)C1NC(=O)C(C(C)O)NC1=O (stereo not shown) [compound 161]
- Plasma active GLP-1 level (relative value to control group as 100), Average value (plasma active GLP-1; Experiment 10): 282
- Significant difference (p < 0.05) vs control group, plasma active GLP-1 level (plasma active GLP-1; Experiment 10): Yes

SMILES: CCC(C)C1NC(=O)C(CC(=O)O)NC1=O (stereo not shown) [compound 162]
- Plasma active GLP-1 level (relative value to control group as 100), Average value (plasma active GLP-1; Experiment 10): 259
- Significant difference (p < 0.05) vs control group, plasma active GLP-1 level (plasma active GLP-1; Experiment 10): Yes

SMILES: CCC(C)C1NC(=O)C(CC(N)=O)NC1=O (stereo not shown) [compound 163]
- Plasma active GLP-1 level (relative value to control group as 100), Average value (plasma active GLP-1; Experiment 10): 327
- Significant difference (p < 0.05) vs control group, plasma active GLP-1 level (plasma active GLP-1; Experiment 10): Yes

SMILES: CSCCC1NC(=O)C(C(C)O)NC1=O (stereo not shown) [compound 169]
- Plasma active GLP-1 level (relative value to control group as 100), Average value (plasma active GLP-1; Experiment 10): 282
- Significant difference (p < 0.05) vs control group, plasma active GLP-1 level (plasma active GLP-1; Experiment 10): Yes

SMILES: O=C1NC(CS)C(=O)NC1CO (stereo not shown) [compound 180]
- Plasma active GLP-1 level (relative value to control group as 100), Average value (plasma active GLP-1; Experiment 10): 259
- Significant difference (p < 0.05) vs control group, plasma active GLP-1 level (plasma active GLP-1; Experiment 10): Yes

SMILES: CCC(C)C1NC(=O)C(CCC(N)=O)NC1=O (stereo not shown) [compound 182]
- Plasma active GLP-1 level (relative value to control group as 100), Average value (plasma active GLP-1; Experiment 2): 188
- Significant difference (p < 0.05) vs control group, plasma active GLP-1 level (plasma active GLP-1; Experiment 2): Yes
- Significant difference (p < 0.05) vs control group, amount of active GLP-1 secreted (NCI-H716 cells; Experiment 4, 10 mM): Yes
- Amount of active GLP-1 secreted (relative value to control group as 100), Average value (NCI-H716 cells; [2]): 445

SMILES: C[C@@H]1NC(=O)C2CCCN2C1=O (stereo partly shown) [compound 187]
- Plasma active GLP-1 level (relative value to control group as 100), Average value (plasma active GLP-1; Experiment 2): 217
- Significant difference (p < 0.05) vs control group, plasma active GLP-1 level (plasma active GLP-1; Experiment 2): Yes
- Significant difference (p < 0.05) vs control group, amount of active GLP-1 secreted (NCI-H716 cells; Experiment 4, 10 mM): Yes
- Amount of active GLP-1 secreted (relative value to control group as 100), Average value (NCI-H716 cells; [2]): 1186

SMILES: NC(=O)CCC1NC(=O)C(Cc2c[nH]cn2)NC1=O (stereo not shown) [compound 191]
- Plasma active GLP-1 level (relative value to control group as 100), Average value (plasma active GLP-1; Experiment 2): 247
- Significant difference (p < 0.05) vs control group, plasma active GLP-1 level (plasma active GLP-1; Experiment 2): Yes
- Significant difference (p < 0.05) vs control group, amount of active GLP-1 secreted (NCI-H716 cells; Experiment 4, 10 mM): Yes
- Amount of active GLP-1 secreted (relative value to control group as 100), Average value (NCI-H716 cells; [2]): 743

SMILES: O=C(O)CC1NC(=O)C(CO)NC1=O (stereo not shown) [compound 193]
- Plasma active GLP-1 level (relative value to control group as 100), Average value (plasma active GLP-1; Experiment 2): 266
- Significant difference (p < 0.05) vs control group, plasma active GLP-1 level (plasma active GLP-1; Experiment 2): Yes
- Significant difference (p < 0.05) vs control group, amount of active GLP-1 secreted (NCI-H716 cells; Experiment 4, 10 mM): Yes
- Amount of active GLP-1 secreted (relative value to control group as 100), Average value (NCI-H716 cells; [2]): 509

SMILES: CC(C)C1NC(=O)C(CCCNC(=N)N)NC1=O (stereo not shown) [compound 194]
- Plasma active GLP-1 level (relative value to control group as 100), Average value (plasma active GLP-1; Experiment 2): 237
- Significant difference (p < 0.05) vs control group, plasma active GLP-1 level (plasma active GLP-1; Experiment 2): Yes
- Significant difference (p < 0.05) vs control group, amount of active GLP-1 secreted (NCI-H716 cells; Experiment 4, 10 mM): Yes
- Amount of active GLP-1 secreted (relative value to control group as 100), Average value (NCI-H716 cells; [2]): 498

SMILES: CSCCC1NC(=O)C(CCCNC(=N)N)NC1=O (stereo not shown) [compound 199]
- Plasma active GLP-1 level (relative value to control group as 100), Average value (plasma active GLP-1; Experiment 2): 217
- Significant difference (p < 0.05) vs control group, plasma active GLP-1 level (plasma active GLP-1; Experiment 2): Yes
- Significant difference (p < 0.05) vs control group, amount of active GLP-1 secreted (NCI-H716 cells; Experiment 4, 10 mM): Yes
- Amount of active GLP-1 secreted (relative value to control group as 100), Average value (NCI-H716 cells; [2]): 652
